Measured values published in ChEMBL document CHEMBL4765294, “Discovery and evaluation of new compounds targeting ribosomal protein S1 in antibiotic-resistant Mycobacterium Tuberculosis” (Eur J Med Chem, 2020).
Calls of active or inactive are those of the source. No cut-off for these calls is given here.

Key:
[1] = tested on: Mycobacterium tuberculosis; assay: Binding affinity to Mycobacterium tuberculosis 15N-labelled wild type RpsA (280 to 438 residues) by chemical shift perturbation based 15N-1H HSQC spectral analysis
[2] = tested on: Mycobacterium tuberculosis; assay: Binding affinity to Mycobacterium tuberculosis RpsA C-terminal domain (285 to 476 residues) assessed as quenching rate constant by fluorescence quenching titration based analysis
[3] = Binding affinity to Mycobacterium tuberculosis RpsA C-terminal domain (285 to 476 residues) assessed as dissociation constant by fluorescence quenching titration based analysis
[4] = tested on: Mycobacterium tuberculosis; assay: Binding affinity to Mycobacterium tuberculosis RpsA C-terminal domain (285 to 476 residues) at 500 uM by STD based analysis

Q: What does the source list for `Cc1cccc(CNC(=O)COc2cc(O)c3c(=O)cc(-c4ccccc4)oc3c2)c1`?
A: Activity [1]: Active; Kq [2]: 1.94 10^12/M/s; Kd [3]: 5.66 µM; Activity [4]: Active

Q: With `Cc1cccc(CNC(=O)CSc2nc3nc[nH]c3c(=O)[nH]2)c1` as the molecule, how does the Activity [1] read?
A: The Activity was “Active”.

Q: And the Kq [2]?
A: The Kq was 3.75 10^12/M/s.

Q: What about the Kd [3] of the same molecule?
A: Its Kd is 2.67 µM.

Q: And the Activity [4]?
A: Its Activity is “Active”.

Q: What does the source list for `O=C(O)c1cnccn1` [PYRAZINOIC ACID]?
A: Kq [2]: 8.22 10^11/M/s; Kd [3]: 9.65 µM

Q: Which Activity [1] does the source give for `Cc1ccc(CNC(=O)COc2cc(O)c3c(=O)cc(-c4ccccc4)oc3c2)cc1` here?
A: Its Activity is “Active”.

Q: What about the Kq [2] of the same molecule?
A: The Kq was 6.45 10^12/M/s.

Q: And the Kd [3]?
A: The Kd was 3.24 µM.

Q: What about the Activity [4] of the same molecule?
A: Its Activity is “Active”.

Q: With `CC(Sc1nc(N)cc(N)n1)C(=O)O` (configuration not stated) as the molecule, how does the Kd [3] read?
A: The Kd was 2.67 µM.

Q: With `CCOC(=O)CSc1nc2nc[nH]c2c(=O)[nH]1` as the molecule, how does the Activity [1] read?
A: The Activity was “Active”.

Q: And the Kq [2]?
A: The Kq was 3.37 10^12/M/s.

Q: What about the Kd [3] of the same molecule?
A: Its Kd is 0.81 µM.

Q: What about the Activity [4] of the same molecule?
A: Its Activity is “Active”.

Q: What does the source list for `Cc1ccc(CNC(=O)CSc2nc3nc[nH]c3c(=O)[nH]2)cc1`?
A: Activity [1]: Active; Kq [2]: 4.09 10^12/M/s; Kd [3]: 7.61 µM; Activity [4]: Active

Q: For `O=C(O)CSc1nc2nc[nH]c2c(=O)[nH]1`, which Activity [1] is on record?
A: The Activity was “Active”.

Q: What about the Kq [2] of the same molecule?
A: Its Kq is 1.79 10^12/M/s.

Q: And the Kd [3]?
A: Its Kd is 6.35 µM.

Q: What about the Activity [4] of the same molecule?
A: The Activity was “Active”.
